Reference: patent publication US20230210994A1, “CELL-PENETRATING CONJUGATE SYSTEMS” (Danmarks Tekniske Universitet, priority 2019, published 2023)

How the values were obtained:
[1] = cited from earlier work
CT-26 cells = test: Ethidium-homodimer internalization in CT-26 cells, fluorescent confocal microscopy; assay type: cell-based, mouse; conditions: EtDi alone, without conjugate
Protocol: CT-26 cells in culture were co-incubated with the conjugate system, 4-hydroxybutyl L-tryptophanate, (1 mg/ml) and Etidium-homodimer (2 μl/ml) for 1 hour and observed under fluorescent confocal microscope. Working ratio was set as 1:3 and two reaction sets comprising of higher (80 μl) loading and standard loading (40 μl ) were performed. Emission bandwidth was set as 490-550nm and 590-680 nm.

CT26 cells = test: Uptake of Oxaliplatin by CT26 cells measured by ICP-MS; assay type: cell-based, mouse; conditions: 30 μM OxPt alone, peaking at 4 h
Protocol: CT26 cells were seeded in 24-well plate (100.000 cells/mL/well) exposed to Oxaliplatin (Ox-Pt, 10 μM and 30 μM) with/and without conjugate the molar ratio of 1:1, 1:3 and 3:1 respectively. After 1, 4, 24 hours of incubation, media was discarded and the cells were washed with PBS twice, once with heparin (to remove anything associated externally with the cell membrane) and once more with PBS. Then the cells were detached from the wells using trypsin and cells were counted. Finally, each sample was diluted in HCl acid and further diluted in 2% HCl with (0.5 ppb Ir), then Pt content was measured in the ICP-MS.

## N[C@@H](Cc1c[nH]c2ccccc12)C(=O)O [tryptophan]
[1]
  pKa of deprotonated carboxylic acid (—COO−): 2.38
  pKa of protonated amino group (—NH3+): 9.39

## Nc1ccc2c(c1)c(-c1ccccc1)[n+](CCCNCCNCCC[n+]1c(-c3ccccc3)c3cc(N)ccc3c3ccc(N)cc31)c1cc(N)ccc21 [EtDi, Ethidium-homodimer, reference compound]
CT-26 cells
  cell penetration of EtDi: cannot penetrate into the cell

## O=C1[O][Pt]2([NH][C@@H]3CCCC[C@H]3[NH]2)[O]C1=O [OxPt, Oxaliplatin, reference compound]
CT26 cells
  OxPt uptake over time: no apparent increase
